Experimental data reported in patent US7193079B1 (Board of Trustees of Michigan State University, priority 2003, dated 2007).

Columns and labels:
IL-2 production = experiment: Inhibition of IL-2 production measured by competitive EIA in PMA/PHA-activated Jurkat T cells; assay type: cell-based, human; settings: PMA/PHA-activated Jurkat T cells, EIA, means of two experiments, standard deviation in parentheses
Protocol: (§1) Exposure of human Jurkat leukemia T-cells to phorbol myristate acetate (PMA/PHA) and THP-1 cells to lipopolysaccharide (LPS), activates NF-κB mediated gene transcription of several pro-inflammatory cytokines, including IL-2, IL-6, IL-8 and TNF-α (Baldwin, Ann. Rev. Immunol. 14: 649–683 (1996); Grilli et al., Int. Rev. Cytol. 143: 1–62 (1993)). […] The inhibition of IL-2 was evaluated in Jurkat cells after PMA/PHA activation (Mahon and O'Neill, J. Biol. Chem. 270: 28557–28564 (1995); Lindgren et al., Molec. Immunol. 38V 267–277 (2001)). The inhibition of TNF-α was evaluated in THP-1 cells after LPS activation (Aikawa et al., Inflamm. Res. 51: 188–194 (2002)). […] After 24 hours, the cell free supernatant fractions were collected and subjected to EIA for the quantification of total IL-2 production.
To each well of a flat bottomed 96 well culture plate 0.2 mL 1×10^6 Jurkat E6-1 cells/mL were added. Each sample was then treated in duplicate with the compounds in DMSO at either 10 μM, 1 μM, 0.1 μM or 10 ηM and allowed to incubate for thirty minutes at 37° C., 5% CO2. Cell free supernatant fractions were collected from stimulated cultures incubated for 24 hr at 37° C., 5% CO2. Cultures were stimulated with phytohemagglutinin (PHA, Sigma-Aldrich, St. Louis, Mo.) at 1 μg/mL; and phorbol myristate acetate (PMA, Sigma-Aldrich, St. Louis, Mo.) at 50 ng/mL. The concentration of IL-2 in each sample was then measured using a competitive enzyme immunoassay (Neogen Corporation, Lansing, Mich.) according to the manufacturer's protocol. Known IL-2 concentrations were plotted and fit a 4 parameter logistic curve. Unknown concentrations were then extrapolated from the standard curve.

NF-κB-DNA binding = experiment: EMSA for NF-κB-DNA binding in nuclear extracts of PMA/PHA-activated Jurkat cells; assay type: cell-based, human; settings: EMSA; for Count per mm^2 NF-κB bands: activated control 105.55; for Inhibition of DNA-binding (relative to activated control): PMA-activated Jurkat cells
Protocol: Human Jurkat leukemia T-cells (clone E6-1; ATCC No. […] The Jurkat cells (1×10^6 cells/mL) are subsequently treated with various concentrations of the compounds in DMSO for 30 min. at 37° C. and 5% CO2 followed by PMA (50 ng/mL) and PHA ([…]) stimulation for an additional 30 minutes. The cells were harvested by centrifugation, washed in ice cold PBS and the nuclear extracts were prepared as previously described (Dignam et al., Nucl. Acids Res. 11: 1475-1489 (1983)). The protein concentration of the extracts was determined according to the Method of Bradford (1976) with BioRad reagents. Nuclear extracts were incubated for 20 minutes at room temperature with a double stranded Cy3 labeled NF-κB consensus oligonucleotide, [NT] ID NO:1). The binding mixture (25 μL) contained 10 mM HEPES-NaOH pH 7.9, 4 mM Tris-HCL, pH 7.9, 6.0 mM KCl, 1 mM EDTA, 1 mM DTT, 10% glycerol, 0.3 mg/mL bovine serum albumin, and 1 μg of poly (dI:dC). The binding mixtures (10 μg of nuclear extract protein) were incubated for 20 minutes at room temperature with 0.16 pmol of Cy3 labeled oligonucleotide. The mixture was loaded on a 4% polyacrylamide gel prepared in 1× TRIS borate/EDTA buffer and was electrophoresed at 200 V for 20 minutes. After electrophoresis the gel was analyzed using a phosphorimager (BIORAD FX PLUS, Biorad Laboratories, Inc., Hercules, Calif.) for detection of NF-κB-DNA binding.

TNF-α production = experiment: Inhibition of TNF-α production measured by competitive EIA in LPS stimulated THP-1 cells; assay type: cell-based, human; settings: EIA, 3 hr incubation, means of two experiments, standard deviation in parentheses
Protocol: as §1
The assay measured the ability of the compounds to inhibit TNF-α production in LPS stimulated THP-1 cells (Aikawa et al., Inflamm. Res. 51V 188–194 (2002)).
THP-1 cells are grown in RPMI-1640 Media (Gibco-BRL, Rockville, Md.) supplemented with 5% fetal bovine serum, penicillin (614 ηg/mL), streptomycin (10 μg/mL) and HEPES buffer, pH 7.2 at 37° C., 5% CO2. To each well of a flat bottomed 96 well culture plate 0.2 mL 1×10^6 THP-1 cells/mL were added. Each sample was then treated in duplicate with the compounds in DMSO at either 10 μM, 1 μM, 0.1 μM or 10 ηM and allowed to incubate for thirty minutes at 37° C., 5% CO2. Cell free supernatant fractions were collected from stimulated cultures incubated for 3 hr at 37° C., 5% CO2. Cultures were stimulated with LPS (Sigma-Aldrich, St. Louis, Mo.) at 1 μg/mL. The concentration of TNF-α in each sample was then measured using a competitive enzyme immunoassay (Neogen Corporation, Lansing, Mich.) according to the manufacturer's protocol. To make a standard curve, known TNF-α concentrations were plotted and fitted to a 4 parameter logistic curve. Unknown concentrations were then extrapolated from the standard curve.

CEM leukemia cells = experiment: Inhibition of cell growth in CEM leukemia cells (trypan blue counting); assay type: cell-based; settings: 48 hour, means of two experiments, standard deviation in parentheses
Protocol: Cells were treated at different concentrations ranging from 10 ηM to 5 μM concentrations over a 48 hour time period.
CEM cells (CCRF-CEM; ATCC No. CCL-119, American Type Culture Collection, Manassas, Va.) were grown in RPMI-1640 Media (Gibco-BRL, Rockville, Md.) supplemented with 10% Fetal Bovine Serum, penicillin (614 r1 g/mL), streptomycin (10 μg/mL) and HEPES buffer, pH 7.2 at 37° C., 5% CO2. DMSO was used as the vector for all drugs and added in the control experiments. Cell cultures were then treated with 10 μM, 1 μM, 0.1 μM or 10 ηM of the drug in duplicate and allowed to incubate at 37° C., 5% CO2. Cells were stained with 4% trypan blue solution in PBS, and counted under the microscope (Thomas Scientific, Fisher Scientific) in duplicate. This was repeated for Oh, 2 h, 6 h, 12 h, 24 h, and 48 h. The data points obtained were then plotted and a point-to-point curve was drawn to determine the effect of the drug on the cells.

CHK1 = target: T1, CHK1 (Homo sapiens, UniProt O14757); settings: natural products, general statement; cited from earlier work
T1 sequence (O14757 1-476): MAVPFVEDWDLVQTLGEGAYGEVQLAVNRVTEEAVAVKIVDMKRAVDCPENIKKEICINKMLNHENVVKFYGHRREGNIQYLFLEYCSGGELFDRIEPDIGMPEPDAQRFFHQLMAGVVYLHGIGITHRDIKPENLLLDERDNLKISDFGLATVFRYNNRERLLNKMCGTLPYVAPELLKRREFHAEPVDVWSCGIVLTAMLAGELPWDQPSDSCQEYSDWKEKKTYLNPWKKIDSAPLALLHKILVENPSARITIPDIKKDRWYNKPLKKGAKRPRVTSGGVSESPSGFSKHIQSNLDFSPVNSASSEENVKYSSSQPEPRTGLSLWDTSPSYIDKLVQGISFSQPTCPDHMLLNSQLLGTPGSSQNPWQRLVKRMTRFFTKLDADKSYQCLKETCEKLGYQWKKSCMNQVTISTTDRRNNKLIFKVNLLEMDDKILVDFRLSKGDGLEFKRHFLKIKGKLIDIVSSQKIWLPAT

IC50 (IL-2 production; Homo sapiens, Jurkat, 24 h) [µM]	IC50 (IL-2 production; 24 hr) [µM]	IC50 (TNF-α production) [µM]	IC50 (TNF-α production; Homo sapiens, THP-1, 3 h) [µM]	GI50 (CEM leukemia cells) [µM]	IC50 (IL-2 production; Homo sapiens, 24 hr) [µM]	IC50 (TNF-α production; Homo sapiens) [µM]	Compound	Count per mm^2 NF-κB bands (NF-κB-DNA binding; 1.0 μM) [Count per mm^2]	Count per mm^2 NF-κB bands (NF-κB-DNA binding; 5.0 μM) [Count per mm^2]	Inhibition of DNA-binding (relative to activated control) (NF-κB-DNA binding; 1.0 μM) [%]	Inhibition of DNA-binding (relative to activated control) (NF-κB-DNA binding; 5.0 μM) [%]	Inhibition of checkpoint kinase CHK1 (in words) (CHK1)
2.4	2.41	1.36	1.4	1.61	–	–	NC1=NC(=O)/C(=C2\CCNC(=O)c3[nH]c(Br)cc32)N1 [Hymenialdisine 1, hymenialdisine, reference compound]	102.14	57.06	–	–	–
–	–	–	–	–	5.12	6.11	S=C(S)N1CCCC1 [PDTC, pyrrolidinedithiocarbamate, reference compound]	73.48	51.68	30	51	–
–	–	–	–	–	–	–	NC1=N/C(=C2/CCNC(=O)c3[nH]ccc32)C(=O)N1 [debromohymenialdisine]	–	–	–	–	low micromolar concentrations
